Assay [1] relates to MCF7. As to the kind of experiment: Induction of mitochondrial membrane depolarization in human MCF7 cells at 8.27 uM after 48 hrs by JC-1 staining based FACS assay (reference value: 9.9 %). The assay is classed as functional.
The test system of assay [2] is MCF7. As to the kind of experiment: Cytotoxicity against human MCF7 cells assessed as reduction in cell viability after 72 hrs by MTT assay. The assay is classed as functional, cell-based. The conditions noted are these: MCF7, 72 h.
Assay [3] is described as follows: Cytotoxicity against human MOLT4 cells assessed as reduction in cell viability after 72 hrs by MTT assay. The assay is classed as functional, cell-based. The settings on record: MOLT-4, 72 h.
Assay [4] has as its system MCF7. The assay is described as follows: Induction of apoptosis in human MCF7 cells assessed as viable cells at 8.27 uM after 48 hrs by Annexin-V-FITC/propidium iodide staining based flow cytometry (reference value: 99.2 %). The assay is classed as functional. The settings on record: MCF7, 48 h, read-out: Activity.
In assay [5] the test system is MCF7. The assay is described as follows: Induction of apoptosis in human MCF7 cells assessed as early apoptotic cells at 8.27 uM after 24 hrs by Annexin-V-FITC/propidium iodide staining based flow cytometry (reference value: 2.3 %). It counts as functional. On the technique in general: A flow cytometer gives signals particle by particle.
Assay [6] has as its system MCF7. As to the kind of experiment: Induction of mitochondrial membrane depolarization in human MCF7 cells assessed as ratio of red to green fluorescence at 8.27 uM after 24 hrs by JC-1 staining based FACS assay (reference value: 9.1). It counts as functional.
Assay [7] concerns the target DNA topoisomerase 2-alpha (Homo sapiens) (UniProt P11388). The assay is described as follows: Poisoning activity at human recombinant topoisomerase 2 assessed as stabilization of enzyme-supercoiled pBS (SK+) DNA complex at 60 uM after 30 mins by ethidium bromide staining based agarose gel electrophoresis.
The test system of assay [8] is MCF7. As to the kind of experiment: Induction of mitochondrial membrane depolarization in human MCF7 cells at 8.27 uM by JC-1 staining based FACS assay. The conditions noted are these: TDE = time-dependent effect. It counts as functional, cell-based.
In assay [9] the test system is MCF7. The assay is described as follows: Induction of apoptosis in human MCF7 cells assessed as early apoptotic cells at 8.27 uM after 48 hrs by Annexin-V-FITC/propidium iodide staining based flow cytometry (reference value: 0.4 %). The assay is classed as functional.
Assay [10] deals with DNA topoisomerase 2-alpha (Homo sapiens) (UniProt P11388). The assay is described as follows: Inhibition of human recombinant topoisomerase 2-mediated relaxation of supercoiled pBS (SK+) DNA at 60 uM after 30 mins by ethidium bromide staining based agarose gel electrophoresis.
Assay [11] in a line: Cytotoxicity against human HCT116 cells assessed as reduction in cell viability after 72 hrs by MTT assay. The conditions noted are these: HCT-116, 72 h. The assay is classed as functional, cell-based. On the technique in general: Formazan colour is commonly taken as a measure of viable cells.
Assay [12] concerns MCF7. As to the kind of experiment: Induction of apoptosis in human MCF7 cells assessed as rounded cells at 8.27 uM after 24 hrs by inverted phase contrast microscopy. The assay is classed as functional, cell-based.
Assay [13] has as its target T1, DNA topoisomerase 1 (Homo sapiens) (UniProt P11387).
T1 sequence (whole entry): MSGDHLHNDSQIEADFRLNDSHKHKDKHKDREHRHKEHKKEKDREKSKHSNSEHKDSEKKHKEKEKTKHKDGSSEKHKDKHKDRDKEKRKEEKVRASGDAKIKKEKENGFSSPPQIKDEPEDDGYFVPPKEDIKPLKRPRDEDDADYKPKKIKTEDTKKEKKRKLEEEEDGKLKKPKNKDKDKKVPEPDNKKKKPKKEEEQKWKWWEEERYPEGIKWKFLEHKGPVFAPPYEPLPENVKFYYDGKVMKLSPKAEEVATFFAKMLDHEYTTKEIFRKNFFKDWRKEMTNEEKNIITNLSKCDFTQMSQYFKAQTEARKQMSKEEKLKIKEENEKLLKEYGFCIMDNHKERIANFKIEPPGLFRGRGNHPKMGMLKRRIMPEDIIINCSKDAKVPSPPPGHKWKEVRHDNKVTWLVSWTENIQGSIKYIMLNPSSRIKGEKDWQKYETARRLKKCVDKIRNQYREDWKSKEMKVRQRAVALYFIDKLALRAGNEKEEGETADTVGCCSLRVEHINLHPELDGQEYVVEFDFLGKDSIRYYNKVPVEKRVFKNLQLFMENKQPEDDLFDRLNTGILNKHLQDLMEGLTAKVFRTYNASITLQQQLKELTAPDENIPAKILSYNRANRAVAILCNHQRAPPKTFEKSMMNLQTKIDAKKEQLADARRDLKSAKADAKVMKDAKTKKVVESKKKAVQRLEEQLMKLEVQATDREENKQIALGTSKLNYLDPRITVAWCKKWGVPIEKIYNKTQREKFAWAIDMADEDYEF
The assay is described as follows: Poisoning activity at human recombinant topoisomerase 1 assessed as stabilization of enzyme-supercoiled pBS (SK+) DNA complex at 60 uM after 30 mins by ethidium bromide staining based agarose gel electrophoresis.

The target in assay [14] is T1, DNA topoisomerase 1 (Homo sapiens). The assay is described as follows: Inhibition of human recombinant topoisomerase 1-mediated relaxation of supercoiled pBS (SK+) DNA at 60 uM after 30 mins by ethidium bromide staining based agarose gel electrophoresis.
Assay [15] concerns MCF7. As to the kind of experiment: Cell cycle arrest in human MCF7 cells assessed as accumulation at G2/M phase at 8.27 uM after 48 hrs by propidium iodide staining based flow cytometry (reference value: 19.8 %). It counts as functional.
A short description of assay [16]: Cytotoxicity against human SKBR3 cells assessed as reduction in cell viability after 72 hrs by MTT assay. It counts as functional, cell-based. The conditions noted are these: SK-BR-3, 72 h.
For assay [17], the system named is MCF7. The assay is described as follows: Induction of apoptosis in human MCF7 cells assessed as PARP-1 cleavage at 8.27 uM after 48 hrs by Western blot analysis. It counts as functional, cell-based.
For assay [18], the target named is T1, DNA topoisomerase 1 (Homo sapiens). The assay is described as follows: Inhibition of CPT mediated formation of topoisomerase 1-supercoiled pBS (SK+) DNA complex in human MCF7 cells at 10 uM preincubated for 2 hrs followed by CPT addition measured after 4 to 12 hrs by immunoband depletion assay. It counts as cell-based.
Assay [19] has the same target. As to the kind of experiment: Poisoning activity at topoisomerase 1 in human MCF7 cells at 10 uM after 12 hrs by immunoband depletion assay. The assay is classed as cell-based.
Assay [20] concerns the target DNA topoisomerase 2-alpha (Homo sapiens) (UniProt P11388). The assay is described as follows: Poisoning activity at topoisomerase 2 in human MCF7 cells at 10 uM after 12 hrs by immunoband depletion assay. It counts as cell-based.
For assay [21] the target is unchanged. As to the kind of experiment: Inhibition of ETO mediated formation of topoisomerase 2-supercoiled pBS (SK+) DNA complex in human MCF7 cells at 10 uM preincubated for 2 hrs followed by ETO addition measured after 4 to 12 hrs by immunoband depletion assay. The assay is classed as cell-based.
Assay [22] deals with MCF7. As to the kind of experiment: Induction of apoptosis in human MCF7 cells assessed as necrotic cells at 11.33 uM after 24 hrs by Annexin-V-FITC/propidium iodide staining based flow cytometry (reference value: 1.7 %). The assay is classed as functional.
Assay [23] has as its system MCF7. As to the kind of experiment: Induction of apoptosis in human MCF7 cells assessed as early apoptotic cells at 11.33 uM after 48 hrs by Annexin-V-FITC/propidium iodide staining based flow cytometry (reference value: 0.4 %). The assay is classed as functional.
The test system of assay [24] is MCF7. The assay is described as follows: Induction of mitochondrial membrane depolarization in human MCF7 cells at 11.33 uM by JC-1 staining based FACS assay. The conditions noted are these: TDE = time-dependent effect. It counts as functional, cell-based.
Assay [25] deals with MCF7. As to the kind of experiment: Induction of apoptosis in human MCF7 cells assessed as late apoptotic cells at 11.33 uM after 48 hrs by Annexin-V-FITC/propidium iodide staining based flow cytometry relative to control. The assay is classed as functional.
Assay [26] concerns MCF7. As to the kind of experiment: Induction of apoptosis in human MCF7 cells assessed as caspase 9 cleavage at 11.33 uM after 48 hrs by Western blot analysis. The assay is classed as functional, cell-based.
The subject of assay [27] is MCF7. The assay is described as follows: Cell cycle arrest in human MCF7 cells assessed as accumulation at G2/M phase at 11.33 uM after 48 hrs by propidium iodide staining based flow cytometry (reference value: 19.8 %). The assay is classed as functional.
In assay [28] the test system is MCF7. As to the kind of experiment: Cell cycle arrest in human MCF7 cells assessed as accumulation at G0/G1 phase at 11.33 uM after 48 hrs by propidium iodide staining based flow cytometry (reference value: 59.7 %). The assay is classed as functional.

Structures are written as SMILES. Calls of active or inactive are those of the source. No cut-off for these calls is given here.

DNA topoisomerase 2-alpha (Homo sapiens), sequence (P11388 whole entry): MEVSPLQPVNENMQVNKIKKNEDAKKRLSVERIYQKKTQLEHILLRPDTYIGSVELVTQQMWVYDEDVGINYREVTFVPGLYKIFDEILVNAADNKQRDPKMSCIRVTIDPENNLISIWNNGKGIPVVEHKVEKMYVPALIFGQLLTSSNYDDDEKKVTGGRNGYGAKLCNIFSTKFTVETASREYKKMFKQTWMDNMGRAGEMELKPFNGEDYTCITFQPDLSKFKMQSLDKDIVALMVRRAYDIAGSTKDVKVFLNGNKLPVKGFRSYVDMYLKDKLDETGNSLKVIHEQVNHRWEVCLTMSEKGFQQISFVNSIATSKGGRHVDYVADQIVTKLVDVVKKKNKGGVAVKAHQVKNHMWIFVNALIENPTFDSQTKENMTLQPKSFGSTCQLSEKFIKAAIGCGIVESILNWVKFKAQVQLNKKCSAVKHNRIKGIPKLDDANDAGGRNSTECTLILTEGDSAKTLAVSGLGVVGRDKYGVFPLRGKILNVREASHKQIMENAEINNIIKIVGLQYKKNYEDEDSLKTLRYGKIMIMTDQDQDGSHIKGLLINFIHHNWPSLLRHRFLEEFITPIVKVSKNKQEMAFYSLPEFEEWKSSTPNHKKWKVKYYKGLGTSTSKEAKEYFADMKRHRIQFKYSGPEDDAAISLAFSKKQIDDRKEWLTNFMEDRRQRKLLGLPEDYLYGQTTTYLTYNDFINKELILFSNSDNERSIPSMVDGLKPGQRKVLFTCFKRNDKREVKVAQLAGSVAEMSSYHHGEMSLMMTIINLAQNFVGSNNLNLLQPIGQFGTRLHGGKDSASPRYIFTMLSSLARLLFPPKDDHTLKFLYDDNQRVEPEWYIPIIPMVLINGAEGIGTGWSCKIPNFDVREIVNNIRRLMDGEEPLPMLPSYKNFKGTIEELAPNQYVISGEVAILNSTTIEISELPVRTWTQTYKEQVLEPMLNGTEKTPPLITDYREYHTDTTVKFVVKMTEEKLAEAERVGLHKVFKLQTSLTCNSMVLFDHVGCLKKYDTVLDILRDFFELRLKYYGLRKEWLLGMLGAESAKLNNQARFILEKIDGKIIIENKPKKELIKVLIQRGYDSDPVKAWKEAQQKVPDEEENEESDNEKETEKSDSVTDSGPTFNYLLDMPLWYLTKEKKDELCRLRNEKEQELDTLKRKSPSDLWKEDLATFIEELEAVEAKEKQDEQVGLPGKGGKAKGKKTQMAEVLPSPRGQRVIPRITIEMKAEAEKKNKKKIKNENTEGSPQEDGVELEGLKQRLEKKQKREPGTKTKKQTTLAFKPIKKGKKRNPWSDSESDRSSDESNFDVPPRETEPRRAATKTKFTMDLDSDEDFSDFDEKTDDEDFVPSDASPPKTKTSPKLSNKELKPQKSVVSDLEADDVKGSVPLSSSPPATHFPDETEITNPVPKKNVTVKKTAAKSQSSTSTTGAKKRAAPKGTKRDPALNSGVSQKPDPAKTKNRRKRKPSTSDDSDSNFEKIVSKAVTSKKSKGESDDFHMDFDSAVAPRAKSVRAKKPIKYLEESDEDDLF

With `C[C@@H]1CC[C@@]2(OC1)O[C@H]1C[C@H]3[C@@H]4CC[C@H]5C[C@@H](O[C@@H]6O[C@H](CO)[C@H](O[C@@H]7O[C@H](CO)[C@@H](O)[C@H](O[C@@H]8OC[C@@H](O)[C@H](O)[C@H]8O)[C@H]7O[C@@H]7O[C@H](CO)[C@@H](O)[C@H](O)[C@H]7O)[C@H](O)[C@H]6O)CC[C@]5(C)[C@H]4CC[C@]3(C)[C@H]1[C@@H]2C` [DEGALACTOTIGONIN], the Activity in the assay on MCF7 [1] was 69.6%; in the assay on MCF7 [5], 5.5%; in the assay with MCF7 [8] it was “tde”; with MCF7 [9], 98.7%; in the assay on MCF7 [15], 22.5%. In addition, the IC50 (usually the concentration that gives 50% inhibition) is 8.27 µM in the assay on MCF7 [2], 11.7 µM in assay [3], 15.4 µM in assay [11] and 9.33 µM in assay [16]. Further, the viability at 8.27 µM in the assay on MCF7 [4] was 0.7%. Further, the Ratio with MCF7 [6] was found to be 9. For the same compound, the result in [7], in assay [13], in [19] and in assay [20] was inactive. For the same compound, the inhibition entry in assay [10], in assay [14], in assay [18] and in assay [21] was “Active” throughout. The outcome in the assay on MCF7 [12] and with MCF7 [17] was Active.
Consider `CC1(C)CC[C@]2(C(=O)O)CC[C@]3(C)C(=CC[C@@H]4[C@@]5(C)CC[C@H](O[C@@H]6O[C@H](C(=O)O)[C@@H](O)[C@H](O)[C@H]6O)C(C)(C)[C@@H]5CC[C@]43C)[C@@H]2C1`, for which the Activity in the assay on MCF7 [22] was 0.7%; in the assay on MCF7 [23], 46%; with MCF7 [24] it was “tde”; in the assay on MCF7 [25] it was 1.3%; in the assay with MCF7 [27], 17%; in the assay with MCF7 [28], 35.1%. For the same compound, the IC50 in the assay on MCF7 [2] was 11.3 µM; in assay [3] it was 13.3 µM; in assay [11], 18 µM; in assay [16], 11.9 µM. The result in assay [7], in assay [13], in [19] and in [20] was inactive. For the same compound, the inhibition result in assay [10], in [14], in [18] and in assay [21] was “Active” throughout. The result with MCF7 [26] was Active.

Source of the values: ChEMBL document CHEMBL3817761, “Chenopodium album metabolites act as dual topoisomerase inhibitors and induce apoptosis in the MCF7 cell line” (Medchemcomm, 2016).
